Experimental data from article PMC7583591 (Computational Biology and Chemistry, 2020).

Target: SARS-CoV-2 M^pro (Severe acute respiratory syndrome coronavirus 2, UniProt P0DTD1)
Experiment: biochemical
Conditions: for inhibition at 50 µM: read-out: % Protease inhibition at 50 μM ligand concentration

Structure (SMILES)	% Protease inhibition at 50 μM ligand concentration (50 μM) [%]	IC50 [µM]	inhibition at 50 µM [%]
O=C(Nc1ccccc1-c1cn2c(CN3CCNCC3)csc2n1)c1cnc2ccccc2n1 [SRT1720]	9.3 ± 2.2		
Oc1ccc(/C=C/c2cc(O)cc(O)c2)cc1 [Resveratrol]		> 128	1.8 ± 0.9
C[S@@+]([O-])CCCCN=C=S [L-sulforaphane]		> 128	8.4 ± 2.7
Cc1cc(O)c2c(=O)c3c(O)cc(O)c4c5c(O)cc(O)c6c(=O)c7c(O)cc(C)c8c1c2c(c34)c(c78)c65 [Hypericin]		63.6 ± 5.7	42.8 ± 8.2
